The target of test [1] is Serine/threonine-protein kinase Nek6 (Homo sapiens) (UniProt Q9HC98).
Test [2] deals with T1, Serine/threonine-protein kinase VRK3 (Homo sapiens) (UniProt Q8IV63).
T1 sequence (whole entry): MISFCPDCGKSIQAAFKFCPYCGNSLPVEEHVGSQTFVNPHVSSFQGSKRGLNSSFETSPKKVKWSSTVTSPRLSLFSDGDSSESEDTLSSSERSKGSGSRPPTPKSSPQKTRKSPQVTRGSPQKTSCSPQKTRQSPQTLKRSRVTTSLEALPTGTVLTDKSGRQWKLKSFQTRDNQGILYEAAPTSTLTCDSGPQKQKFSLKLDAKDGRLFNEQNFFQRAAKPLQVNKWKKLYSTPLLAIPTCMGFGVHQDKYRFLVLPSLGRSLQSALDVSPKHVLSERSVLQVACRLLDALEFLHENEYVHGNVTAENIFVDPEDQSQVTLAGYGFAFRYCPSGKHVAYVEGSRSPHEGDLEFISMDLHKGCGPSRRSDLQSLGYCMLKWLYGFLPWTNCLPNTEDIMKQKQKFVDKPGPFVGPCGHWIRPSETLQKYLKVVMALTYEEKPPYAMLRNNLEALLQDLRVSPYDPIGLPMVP

Test [3] addresses T2, Lymphokine-activated killer T-cell-originated protein kinase (Homo sapiens) (UniProt Q96KB5).
T2 sequence (whole entry): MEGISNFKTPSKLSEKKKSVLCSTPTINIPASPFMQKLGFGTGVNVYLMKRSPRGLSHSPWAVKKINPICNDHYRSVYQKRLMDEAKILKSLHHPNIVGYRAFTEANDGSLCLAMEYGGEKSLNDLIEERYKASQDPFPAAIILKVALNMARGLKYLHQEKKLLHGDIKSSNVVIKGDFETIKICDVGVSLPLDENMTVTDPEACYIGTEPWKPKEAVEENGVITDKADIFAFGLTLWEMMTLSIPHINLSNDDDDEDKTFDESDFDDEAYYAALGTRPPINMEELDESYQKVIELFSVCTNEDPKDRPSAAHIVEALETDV

Test [4] has as its target Calcium/calmodulin-dependent protein kinase kinase 2 (Homo sapiens, UniProt Q96RR4).
Test [5] has as its target Calcium/calmodulin-dependent protein kinase type 1D (Homo sapiens) (UniProt Q8IU85).
Test [6] concerns the target T3, Calcium/calmodulin-dependent protein kinase type IV (Homo sapiens) (UniProt Q16566).
T3 sequence (whole entry): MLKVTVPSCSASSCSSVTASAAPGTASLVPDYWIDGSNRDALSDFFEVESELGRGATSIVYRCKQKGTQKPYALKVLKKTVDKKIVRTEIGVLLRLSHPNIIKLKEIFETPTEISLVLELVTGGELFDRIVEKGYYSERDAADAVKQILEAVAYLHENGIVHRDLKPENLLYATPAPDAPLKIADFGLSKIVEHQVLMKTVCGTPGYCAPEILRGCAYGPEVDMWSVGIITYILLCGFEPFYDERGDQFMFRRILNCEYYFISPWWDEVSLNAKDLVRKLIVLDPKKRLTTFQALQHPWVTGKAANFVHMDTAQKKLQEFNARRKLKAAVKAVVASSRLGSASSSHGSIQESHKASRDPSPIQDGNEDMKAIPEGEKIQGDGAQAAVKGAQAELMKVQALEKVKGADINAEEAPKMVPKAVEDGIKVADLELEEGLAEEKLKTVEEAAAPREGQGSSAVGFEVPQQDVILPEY

The target in test [7] is Serine/threonine-protein kinase RIO2 (Homo sapiens) (UniProt Q9BVS4).
Serine/threonine-protein kinase RIO2 (Homo sapiens), sequence (Q9BVS4 whole entry, looked up): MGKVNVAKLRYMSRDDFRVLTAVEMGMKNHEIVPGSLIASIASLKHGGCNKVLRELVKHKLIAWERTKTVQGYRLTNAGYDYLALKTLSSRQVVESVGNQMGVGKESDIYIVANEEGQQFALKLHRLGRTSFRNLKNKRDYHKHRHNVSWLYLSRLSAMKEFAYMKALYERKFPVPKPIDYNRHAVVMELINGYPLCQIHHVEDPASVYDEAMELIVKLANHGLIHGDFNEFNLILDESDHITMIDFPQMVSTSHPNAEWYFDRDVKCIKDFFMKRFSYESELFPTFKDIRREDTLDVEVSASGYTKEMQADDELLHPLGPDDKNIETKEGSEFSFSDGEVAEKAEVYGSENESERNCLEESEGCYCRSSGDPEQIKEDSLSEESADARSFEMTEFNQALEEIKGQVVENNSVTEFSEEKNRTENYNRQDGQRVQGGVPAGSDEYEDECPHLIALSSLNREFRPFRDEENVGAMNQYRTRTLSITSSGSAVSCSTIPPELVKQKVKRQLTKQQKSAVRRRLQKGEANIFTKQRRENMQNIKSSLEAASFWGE
In test [8] the target is T4, Dual specificity mitogen-activated protein kinase kinase 6 (Homo sapiens) (UniProt P52564).
T4 sequence (whole entry): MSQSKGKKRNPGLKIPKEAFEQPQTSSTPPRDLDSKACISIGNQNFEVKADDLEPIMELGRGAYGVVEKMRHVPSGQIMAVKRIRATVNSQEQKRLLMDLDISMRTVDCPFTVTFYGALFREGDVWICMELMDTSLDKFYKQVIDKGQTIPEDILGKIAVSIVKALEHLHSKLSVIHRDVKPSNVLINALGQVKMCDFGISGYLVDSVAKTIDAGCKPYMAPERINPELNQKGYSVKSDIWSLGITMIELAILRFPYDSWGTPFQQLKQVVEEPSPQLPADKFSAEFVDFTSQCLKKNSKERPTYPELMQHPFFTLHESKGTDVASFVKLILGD

Test [9] addresses Dual specificity mitogen-activated protein kinase kinase 2 (Homo sapiens, UniProt P36507).
In test [10] the target is Death-associated protein kinase 3 (Homo sapiens) (UniProt O43293).
Death-associated protein kinase 3 (Homo sapiens), sequence (O43293 whole entry, looked up): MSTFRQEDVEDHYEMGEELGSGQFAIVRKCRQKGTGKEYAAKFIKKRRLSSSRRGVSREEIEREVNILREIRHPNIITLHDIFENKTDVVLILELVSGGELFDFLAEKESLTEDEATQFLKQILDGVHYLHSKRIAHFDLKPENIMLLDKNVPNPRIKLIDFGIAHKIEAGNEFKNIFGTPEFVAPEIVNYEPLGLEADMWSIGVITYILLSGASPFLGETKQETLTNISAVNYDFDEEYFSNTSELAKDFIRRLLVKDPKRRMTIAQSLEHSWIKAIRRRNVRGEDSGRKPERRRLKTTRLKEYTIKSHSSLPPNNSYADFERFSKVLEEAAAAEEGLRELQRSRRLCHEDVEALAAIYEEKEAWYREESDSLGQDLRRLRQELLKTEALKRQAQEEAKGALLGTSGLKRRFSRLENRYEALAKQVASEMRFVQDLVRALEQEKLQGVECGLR
In test [11] the target is Ribosomal protein S6 kinase alpha-3 (Homo sapiens) (UniProt P51812).
Ribosomal protein S6 kinase alpha-3 (Homo sapiens), sequence (P51812 whole entry): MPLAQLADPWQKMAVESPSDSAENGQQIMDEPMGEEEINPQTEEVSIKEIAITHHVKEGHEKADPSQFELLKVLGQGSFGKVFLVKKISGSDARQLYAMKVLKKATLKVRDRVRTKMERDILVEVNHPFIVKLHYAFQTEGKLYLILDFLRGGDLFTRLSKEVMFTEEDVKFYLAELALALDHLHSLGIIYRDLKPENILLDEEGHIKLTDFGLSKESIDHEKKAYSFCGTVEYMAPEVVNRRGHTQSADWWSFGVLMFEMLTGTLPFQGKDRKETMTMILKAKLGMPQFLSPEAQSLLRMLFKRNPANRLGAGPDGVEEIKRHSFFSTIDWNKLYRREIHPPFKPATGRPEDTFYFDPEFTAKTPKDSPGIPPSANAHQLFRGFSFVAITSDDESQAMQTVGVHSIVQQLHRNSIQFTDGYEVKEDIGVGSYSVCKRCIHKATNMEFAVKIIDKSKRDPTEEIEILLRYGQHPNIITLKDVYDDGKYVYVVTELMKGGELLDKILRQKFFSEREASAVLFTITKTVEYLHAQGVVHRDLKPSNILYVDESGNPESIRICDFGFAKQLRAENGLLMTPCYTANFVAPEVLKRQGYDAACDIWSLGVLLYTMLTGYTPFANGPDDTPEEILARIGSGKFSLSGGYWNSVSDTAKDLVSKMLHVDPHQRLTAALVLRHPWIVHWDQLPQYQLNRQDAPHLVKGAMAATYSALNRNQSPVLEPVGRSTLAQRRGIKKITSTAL
Test [12] concerns the target Serine/threonine-protein kinase PLK1 (Homo sapiens) (UniProt P53350).
The target in test [13] is Calcium/calmodulin-dependent protein kinase type 1G (Homo sapiens) (UniProt Q96NX5).
For test [14], the target named is Serine/threonine-protein kinase 26 (Homo sapiens) (UniProt Q9P289).
The target in test [15] is Casein kinase I isoform gamma-3 (Homo sapiens) (UniProt Q9Y6M4).
Casein kinase I isoform gamma-3 (Homo sapiens), sequence (Q9Y6M4 whole entry, looked up, canonical isoform): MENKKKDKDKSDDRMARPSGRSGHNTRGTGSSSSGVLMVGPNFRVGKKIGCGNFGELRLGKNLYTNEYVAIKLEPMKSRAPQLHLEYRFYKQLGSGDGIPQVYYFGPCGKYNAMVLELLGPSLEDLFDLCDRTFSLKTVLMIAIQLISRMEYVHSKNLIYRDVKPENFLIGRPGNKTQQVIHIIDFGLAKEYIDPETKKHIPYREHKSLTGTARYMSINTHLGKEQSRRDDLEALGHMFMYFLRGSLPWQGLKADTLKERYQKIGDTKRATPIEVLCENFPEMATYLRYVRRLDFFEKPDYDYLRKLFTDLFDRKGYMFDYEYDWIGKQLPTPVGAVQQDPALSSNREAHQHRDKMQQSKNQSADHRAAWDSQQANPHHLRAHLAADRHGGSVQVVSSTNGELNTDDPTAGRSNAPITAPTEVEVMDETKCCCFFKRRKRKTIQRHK
The target of test [16] is Calcium/calmodulin-dependent protein kinase type II subunit delta (Homo sapiens) (UniProt Q13557).
Test [17] concerns the target Serine/threonine-protein kinase 25 (Homo sapiens) (UniProt O00506).
In test [18] the target is Cyclin-dependent kinase 16 (Homo sapiens) (UniProt Q00536).
The target of test [19] is 5'-AMP-activated protein kinase catalytic subunit alpha-2 (Homo sapiens) (UniProt P54646).
The target of test [20] is Mitogen-activated protein kinase 3 (Homo sapiens, UniProt P27361).
Mitogen-activated protein kinase 3, sequence (P27361 whole entry): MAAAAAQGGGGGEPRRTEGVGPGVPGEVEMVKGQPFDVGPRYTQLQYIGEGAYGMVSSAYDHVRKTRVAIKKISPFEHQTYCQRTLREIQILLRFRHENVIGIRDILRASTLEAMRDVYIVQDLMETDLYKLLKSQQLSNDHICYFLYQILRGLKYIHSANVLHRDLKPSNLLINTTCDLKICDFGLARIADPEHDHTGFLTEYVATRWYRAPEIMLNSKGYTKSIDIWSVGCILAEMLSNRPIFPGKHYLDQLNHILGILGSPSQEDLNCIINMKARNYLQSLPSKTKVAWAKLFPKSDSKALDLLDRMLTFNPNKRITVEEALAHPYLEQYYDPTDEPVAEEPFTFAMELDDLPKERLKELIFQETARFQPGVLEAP
Test [21] deals with Serine/threonine-protein kinase 38 (Homo sapiens) (UniProt Q15208).
Serine/threonine-protein kinase 38 (Homo sapiens), sequence (Q15208 2-465 limits assumed): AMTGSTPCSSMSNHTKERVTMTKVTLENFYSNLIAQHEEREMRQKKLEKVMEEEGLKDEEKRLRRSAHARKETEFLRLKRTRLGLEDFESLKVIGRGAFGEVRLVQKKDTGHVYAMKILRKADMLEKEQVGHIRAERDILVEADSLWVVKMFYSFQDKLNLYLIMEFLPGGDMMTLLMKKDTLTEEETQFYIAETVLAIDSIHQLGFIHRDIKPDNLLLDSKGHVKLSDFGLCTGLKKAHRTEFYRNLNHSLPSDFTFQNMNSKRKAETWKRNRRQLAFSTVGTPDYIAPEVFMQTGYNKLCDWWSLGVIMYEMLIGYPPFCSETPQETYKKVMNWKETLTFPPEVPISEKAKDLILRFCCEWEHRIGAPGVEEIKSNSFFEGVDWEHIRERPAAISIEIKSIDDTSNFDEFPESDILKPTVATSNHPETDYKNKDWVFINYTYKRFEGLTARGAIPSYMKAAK

Serine/threonine-protein kinase 25 (Homo sapiens), sequence (O00506 whole entry, looked up): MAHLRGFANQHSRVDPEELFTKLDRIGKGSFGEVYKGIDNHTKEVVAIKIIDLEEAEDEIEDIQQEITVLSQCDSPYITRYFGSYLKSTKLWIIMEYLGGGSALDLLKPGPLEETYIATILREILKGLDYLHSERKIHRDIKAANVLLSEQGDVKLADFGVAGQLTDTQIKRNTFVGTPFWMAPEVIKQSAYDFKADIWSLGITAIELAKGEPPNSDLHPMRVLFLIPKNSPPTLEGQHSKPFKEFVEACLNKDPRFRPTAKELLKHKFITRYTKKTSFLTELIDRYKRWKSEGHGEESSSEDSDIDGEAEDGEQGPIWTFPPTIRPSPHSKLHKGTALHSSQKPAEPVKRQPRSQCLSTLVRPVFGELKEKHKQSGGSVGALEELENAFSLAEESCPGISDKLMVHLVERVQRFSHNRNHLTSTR
Serine/threonine-protein kinase PLK1 (Homo sapiens), sequence (P53350 whole entry): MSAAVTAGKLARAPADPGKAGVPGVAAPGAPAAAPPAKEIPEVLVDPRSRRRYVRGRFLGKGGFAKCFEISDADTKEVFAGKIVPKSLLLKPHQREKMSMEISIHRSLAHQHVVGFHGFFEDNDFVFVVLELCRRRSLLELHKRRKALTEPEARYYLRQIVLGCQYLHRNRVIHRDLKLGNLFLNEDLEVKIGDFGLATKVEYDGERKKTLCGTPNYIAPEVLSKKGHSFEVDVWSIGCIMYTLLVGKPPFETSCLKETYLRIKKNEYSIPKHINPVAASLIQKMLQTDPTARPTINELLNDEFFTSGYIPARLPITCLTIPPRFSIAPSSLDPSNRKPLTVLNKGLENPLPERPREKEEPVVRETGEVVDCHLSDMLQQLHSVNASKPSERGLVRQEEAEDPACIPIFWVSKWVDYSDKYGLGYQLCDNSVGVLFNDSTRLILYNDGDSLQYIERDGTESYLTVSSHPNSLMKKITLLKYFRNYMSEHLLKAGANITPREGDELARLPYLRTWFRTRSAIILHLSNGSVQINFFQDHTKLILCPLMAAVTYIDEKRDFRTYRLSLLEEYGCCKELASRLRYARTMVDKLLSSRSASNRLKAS
Serine/threonine-protein kinase Nek6 (Homo sapiens), sequence (Q9HC98 whole entry): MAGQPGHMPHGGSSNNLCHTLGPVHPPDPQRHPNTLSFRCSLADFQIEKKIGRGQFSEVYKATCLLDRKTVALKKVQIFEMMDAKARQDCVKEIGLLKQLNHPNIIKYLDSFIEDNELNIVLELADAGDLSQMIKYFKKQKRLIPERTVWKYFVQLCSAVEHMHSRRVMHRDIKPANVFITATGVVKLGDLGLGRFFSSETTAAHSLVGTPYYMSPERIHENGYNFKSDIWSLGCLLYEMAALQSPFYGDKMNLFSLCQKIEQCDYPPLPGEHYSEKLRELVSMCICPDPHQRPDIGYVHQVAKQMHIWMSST
Calcium/calmodulin-dependent protein kinase type 1D (Homo sapiens), sequence (Q8IU85 whole entry, looked up): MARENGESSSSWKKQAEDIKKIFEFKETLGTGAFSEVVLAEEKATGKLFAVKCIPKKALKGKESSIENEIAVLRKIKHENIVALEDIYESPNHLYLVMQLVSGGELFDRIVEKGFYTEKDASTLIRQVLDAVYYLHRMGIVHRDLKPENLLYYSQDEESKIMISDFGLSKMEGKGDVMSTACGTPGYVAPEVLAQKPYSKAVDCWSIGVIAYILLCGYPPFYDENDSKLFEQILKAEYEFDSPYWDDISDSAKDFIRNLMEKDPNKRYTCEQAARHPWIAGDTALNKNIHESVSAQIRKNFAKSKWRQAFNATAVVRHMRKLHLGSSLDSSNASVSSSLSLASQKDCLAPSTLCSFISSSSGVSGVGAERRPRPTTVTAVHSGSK

The ΔTm is the shift of the melting midpoint relative to a reference. As for `COc1cc(O)c2c(c1)oc(=O)c1c3cc(O)c(O)cc3oc21` [WEDELOLACTONE], the ΔTm in test [1] was 0.4 °C; in test [2], -1 °C; in [3], 0 °C; in [4], 2.3 °C; in test [5], 1.1 °C; in test [6], 0.8 °C. Moreover, the ΔTm was 3.6 °C in test [7]; 0.2 °C in test [8]; 0.1 °C in test [9]; 0 °C in test [10]; 1.8 °C in test [11]; 1.4 °C in [12]. For the same compound, the ΔTm in [13] was determined as 0.1 °C; in [14], 3.2 °C; in [15], 1.5 °C; in [16], 0.5 °C; in test [17], 2.7 °C; in test [18], 0.1 °C. Moreover, the shift in melting temperature (ΔTm) is -0.8 °C in test [19], 0.8 °C in [20] and 0.5 °C in [21].

For the origin of these results see ChEMBL document CHEMBL1145498, “A systematic interaction map of validated kinase inhibitors with Ser/Thr kinases” (Proc Natl Acad Sci U S A, 2007).
